Laboratory results: US20040192720A1, “Novel heteroaryl alkylamide derivatives useful as bradykinin receptor modulators” (priority 2003, published 2004)
pKi: −log10 of the molar value.

Experiments:
[1] = biological target: T1, human B2 bradykinin receptors (Homo sapiens, UniProt P30411); experiment: Bradykinin B2 (BK2) Receptor Binding Assay; details: CHO-K1 membranes transfected with human B2 receptor, ~0.25 nM [3H]NPC17731, 60 min 25° C.
T1 construct: purchased Receptor Biology, Inc. (Baltimore, Md.); host or cells: CHO-K1 cells transfected with human B2 receptor (membranes)
T1 sequence (P30411 1-391): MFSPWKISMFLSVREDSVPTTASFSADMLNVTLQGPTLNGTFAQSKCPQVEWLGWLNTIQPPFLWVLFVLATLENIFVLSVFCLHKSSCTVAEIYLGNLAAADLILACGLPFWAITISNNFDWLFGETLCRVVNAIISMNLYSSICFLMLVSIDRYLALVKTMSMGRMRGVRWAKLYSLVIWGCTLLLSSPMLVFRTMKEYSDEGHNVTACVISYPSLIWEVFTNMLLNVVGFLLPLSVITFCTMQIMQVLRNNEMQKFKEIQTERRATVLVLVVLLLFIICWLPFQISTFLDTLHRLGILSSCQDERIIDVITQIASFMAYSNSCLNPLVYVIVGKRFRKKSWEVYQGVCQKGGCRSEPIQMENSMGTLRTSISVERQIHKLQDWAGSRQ
Description: Bradykinin B2 (BK2) Receptor Binding Assay
Cell membranes of CHO-K1 cells transfected with human B2 bradykinin receptors (CH)-hB2) were purchased from Receptor Biology, Inc. (Baltimore, Md.). 5.54 mg/mL of membrane protein suspended in 10 mM TRIS-HC pH 7.2, 2 mM EDTA, 10% sucrose.
Incubation for 60 min at 25° C. was performed in a total volume of 1 mL and contained, unless stated differently, 50 mM HEPES, pH 7.2, 5 mM MgCl2, 0.02 mg/mL 1.10-phenathroline (Sigma, P-9375), 0.25 mg/mL pefebloc SC (Boerhringer, 1429876), 30 μg/mL membrane protein and ˜0.25 nM [^3HNPC17731 (NEN, Boston). Samples were harvested on a Brandel Cell Harvester on to Wallac filtermat B sheets (96 sample format), and washed three times with 2 mL cold HEPES-buffer (10 mM, pH 7.5), and dried in a microwave oven. To each sample area 2×40 μL of Betaplate Scint scintillation fluid (LKB) was added and the radioactivity quantified on a LKB (Wallac) 1205 BetaPlate liquid scintillation counter.
The data were used to calculate either the % inhibition compared to control binding (when only a single concentration of test compound was evaluated) or a Ki value (when a range of concentrations were tested). Background was subtracted from mean cpm values and % inhibition was calculated as: [(total dpm-tpst compound dpm)/(total dpm-nonspecific dpm)]×100. Kd and Ki values were calculated using GraphPad PRISM data analysis program.

[2] = biological target: T2, human B2 bradykinin receptors (CHO-hB2 cell membranes) (Homo sapiens, UniProt P30411); experiment: [35S]GTPγS Binding Assay in CHO-hB2 Cell Membranes; format: biochemical; details: bradykinin-stimulated [35S]GTPγS binding; for Functional Activity (% Basal): number in parentheses, concentration not given
T2 construct: purchased Receptor Biology, Inc. (Baltimore, Md.); host or cells: CHO-hB2 cells (membranes)
T2 sequence (P30411 1-391): T1 sequence (P30411 1-391)
Description: [^35S]GTPγS Binding Assay in CHO-hB2Cell Membranes
CHO-hB2 cell membranes were purchased from Receptor Biology, Inc. (Baltimore, Md.). 10 mg/mL of membrane protein was suspended in 10 mM TRIS-HC pH 7.2, 2 mM EDTA, 10% sucrose.
Membranes were added into 15 mL ice cold binding assay buffer. The assay buffer contained 50 mM HEPES, pH 7.6, 5 mM MgCl2, 100 mM NaCl, 1 mM DTT and 1 mM EDTA. The membrane suspension was homogenized twice with a Polytron and centrifuged at 3000 rpm for 10 min. The supernatant was then centrifuged at 18,000 rpm for 20 min. The pellet was saved in a tube and resuspended.
The pellet membranes (40 μg/mL) were preincubated with SPA (scintillation proximity assay) beads (20 mg/mL) at 25 C. ° for 45 min in the assay buffer. The SPA beads (5 mg/mL) coupled with membranes (10 μg/mL) were then incubated with 0.5 nM [^35S]GTPγS in the same HEPES buffer containing 50 μM GDP in total volume of 200 μL. Bradykinin was used to stimulate [^35S]GTPγS binding. Varying concentrations of drugs were incubated with bradykinin to inhibit bradykinin-stimulated [^35S]GTPγS binding. The basal binding was tested in the absence of bradykinin and no specific binding was tested in the present 10 μM unlabeled GTPγS. The radioactivity was quantified on a Packard Top Count, and calculated.
% of Basal=(stimulated binding−non specific binding)/(basal binding−non specific binding)×100.

[3] = test system: kaolin-induced abdominal irritant response; experiment: Graded Abdominal Irritant Test (GrAIT); format: in vivo; details: po; for % Inhibition: 30 minutes before kaolin 100 mg/kg i.p., dose not given; for ED50: read-out: ED50 (μmol/Kg, p.o.)
Description: Graded Abdominal Irritant Test The […] Abdominal Irritant Test (GrAIT) is a modification of the methods described by Koster et al. (Koster R., Anderson M and DeBeer E. J. Fed. Proc. 1959, 18, 412). Prior to the test (30 minutes for oral or subcutaneous administration), each animal was administered a known analgesic, a test compound, or vehicle (0.05N HCl) by one of two routes (oral or subcutaneous). Kaolin (100 mg/kg) was injected intraperitoneally (using a standard 23G needle) at a volume of 10 mL/kg of body weight. Following the administration of the chemical agent, the animals were placed in glass bell jars (approximately 15 cm in diameter with wood chips on the bottom). […] A contraction of the abdominal musculature and an elongation of the body, which extends through to the hindlimbs, characterize this response. The responses were counted during the 15-minute period after the injection of the kaolin. A mechanical counter or a personal computer was used to collect the number of counts per animal, and animals were observed no more than 5 at a time. The mean number of counts (±SEM) for a group of animals receiving a known analgesic or test compound was compared to the mean for the group of animals which received only vehicle pretreatment (Control group). For each dose, % inhibition of the response was calculated. For each test compound, the ED50 value was calculated using a log dose regression analysis program (PharmTools software).

pKi [1] | Compound | Functional Activity (word result) [2] | % Inhibition [3] | ED50 [3] | Functional Activity (% Basal) [2]
5.17 | Cc1ccc2cccc(OCc3c(Cl)ccc(NC(=O)Cc4ccc(C(=O)c5ccc(C#N)nc5)n4C)c3Cl)c2n1 [Compound 14] |  |  |  | 
 | Cc1ccc2cccc(OCc3c(C)ccc(N(C)C(=O)Cc4ccc(C(=O)c5cnccc5Cl)n4C)c3C)c2n1 [Compound 77, 2-[5-(4-Chloro-pyridine-3-carbonyl)-1-methyl-1H-pyrrol-2-yl]-N-[2,4-dimethyl-3-(2-methyl-quinolin-8-yloxymethyl)-phenyl]-N-methyl-acetamide] | Antagonist | 70% | 80.9 µmol/kg | 62 % Basal
 | Cc1ccc2cccc(OCc3c(C)ccc(N(C)C(=O)Cc4ccc(C(=O)c5cnccc5C#N)n4C)c3C)c2n1 [Compound 78, 2-[5-(4-Cyano-pyridine-3-carbonyl)-1-methyl-1H-pyrrol-2-yl]-N-[2,4-dimethyl-3-(2-methyl-quinolin-8-yloxymethyl)-phenyl]-N-methyl-acetamide] | Antagonist | 82% | 114 µmol/kg | 83 % Basal
 | Cc1ccc2cccc(OCc3c(C)ccc(N(C)C(=O)CCc4ccc(C(=O)c5ccc(Cl)nc5)n4C)c3C)c2n1 [Compound 88] | Antagonist |  |  | 
 | Cc1ccc2cccc(OCc3c(Cl)ccc(N(C)C(=O)CCc4ccc(C(=O)c5cnccc5Cl)n4C)c3Cl)c2n1 [Compound 89, 3-[5-(4-Chloro-pyridine-3-carbonyl)-1-methyl-1H-pyrrol-2-yl]-N-[2,4-dichloro-3-(2-methyl-quinolin-8-yloxymethyl)-phenyl]-N-methyl-propionamide] | Antagonist | 98% | 22.5 µmol/kg | 51 % Basal
 | Cc1ccc2cccc(OCc3c(C)ccc(N(C)C(=O)CCc4ccc(C(=O)c5ccc(C#N)cc5)n4C)c3C)c2n1 [Compound 90] | Antagonist |  |  | 50 % Basal
7.05 | Cc1ccc2cccc(OCc3c(C)ccc(N(C)C(=O)Cc4ccc(C(=O)c5ccccc5)s4)c3C)c2n1 [Compound 108, 2-(5-Benzoyl-thiophen-2-yl)-N-[2,4-dimethyl-3-(2-methyl-quinolin-8-yloxymethyl)-phenyl]-N-methyl-acetamide] |  |  |  | 
 | CC(=O)Nc1ccc(C=CC(=O)NC[C@H]2CCCN2c2ccc(C)c(COc3cccc4ccc(C)nc34)c2C)cn1 [Compound 112, 3-(6-Acetylamino-pyridin-3-yl)-N-{1-[2,4-dimethyl-3-(2-methyl-quinolin-8-yloxymethyl)-phenyl]-pyrrolidin-2-(R)-ylmethyl}-acrylamide.] | Antagonist |  |  | 59 % Basal
5.10 | Cc1ccc2cccc(OCc3c(C)ccc(N4CCC[C@H]4CNC(=O)Cc4ccc(C(=O)c5ccc(C#N)cc5)n4C)c3C)c2n1 [Compound 113] |  |  |  | 
6.26 | Cc1ccc2cccc(OCc3c(C)ccc(N4CCC[C@H]4CNC(=O)CCc4ccc(C(=O)c5ccc(C#N)cc5)n4C)c3C)c2n1 [Compound 114] |  |  |  | 
 | Cc1ccc2cccc(OCc3c(Cl)cc(Cl)c(N(C)C(=O)Cc4ccc(C(=O)c5ccc(Cl)nc5)n4C)c3Cl)c2n1 [Compound 117, 2-[5-(6-Chloro-pyridine-3-carbonyl)-1-methyl-1H-pyrrol-2-yl]-N-methyl-N-[2,4,6-trichloro-3-(2-methyl-quinolin-8-yloxymethyl)-phenyl]-acetamide] | Antagonist |  |  | 

Compound | pKi [1] | Functional Activity (word result) [2] | % Inhibition [3] | ED50 [3] | Functional Activity (% Basal) [2]
Cc1ccc2cccc(OCc3c(Cl)ccc(NC(=O)Cc4ccc(C(=O)c5ccc(C#N)cc5)n4C)c3Cl)c2n1 [Compound 15] | 5.21 | Weak antagonist |  |  | 
N-[2,4-Dimethyl-3-(2-methyl-quinolin-8-yloxymethyl)-phenyl]-3-[5-(4-methoxy-benzoyl)-1-methyl-1H-pyrrol-2-yl]-N-methyl-propionamide [Compound 106] | 6.43 |  |  |  | 
